The values that follow come from patent US12201613B2 (priority 2020, dated 2025).

The subject of test [1] is SARS-CoV-2 (SARS-CoV-2/human/TWN/CGMH-CGU-01/2020). The test is classed as cell-based.
The test system of test [2] is lysozyme-coated Pd-NTF electrodes. In words: Binding selectivity of S-protein to lysozyme-coated Pd-NTF electrode (EIS). The note with it: presence of peptide analogue. From the text: (iii) lysozyme-coated Pd-electrode in the absence of peptide analogues; or […]
The target of test [3] is T1, SARS-CoV-2 S-protein-ACE2 binding (Homo sapiens, UniProt Q9BYF1, K631R).
T1 construct: made in house
The test can be described thus: EIS-based biosensing platform (ACE2-Pd-NTFE): modulation of S-protein-ACE2 binding. On the set-up: species or system SARS-CoV-2; human. The note with it: for suppression of S-protein-ACE2 interaction / maximum binding efficacy / ECmax S-protein (S-protein-ACE2 interaction at maximum S-protein concentration): 4 μg/mL ACEi; for suppression of S-protein-ACE2 interaction / maximum binding efficacy: at maximum S-protein concentration; for ECmax S-protein (S-protein-ACE2 interaction at maximum S-protein concentration): baseline 99.5%±11.0% (104.2%±4.8% for ramiprilat); for modulation effect on the S-protein-ACE2 binding: dose-dependent, 0.1 to 4 μg/mL.

The nature of test [4]: Binding selectivity of S-protein to plain Pd-NTF electrode (EIS). The note with it: presence of peptide analogue.

Each structure is given as a SMILES string.

For `NCCCC[C@H](N[C@@H](CCc1ccccc1)C(=O)O)C(=O)N1CCC[C@H]1C(=O)O` [lisinopril], the “E gene RNA in the media increased by” value in test [1] came to 54.2%. Also, the “effect on binding patterns of S-protein to the lysozyme-coated Pd-NTF electrode” value in test [2] is “did not change the binding patterns”.
Consider `CCOC(=O)[C@H](CCc1ccccc1)N[C@@H](C)C(=O)N1CCC[C@H]1C(=O)O` [enalapril], for which the “E gene RNA in the media increased by” value in test [1] amounted to 93.7%.
On to `CCC[C@H](N[C@@H](C)C(=O)N1[C@H](C(=O)O)C[C@@H]2CCCC[C@@H]21)C(=O)O` [perindoprilat], for which, in test [3], the “suppression of S-protein-ACE2 interaction / maximum binding efficacy” value stood at 67%, the “ECmax S-protein (S-protein-ACE2 interaction at maximum S-protein concentration)” value (“ECmax S-protein” for short) was determined as 33.0±3.7% and the “modulation effect on the S-protein-ACE2 binding” value (shortened to “modulation effect”) is given as “antagonism effect is significantly enhanced”. For the same compound, the “E gene RNA copies in the culture media reduced by” value in test [1] is listed as roughly 20.1%. Also, the “effect on binding patterns of S-protein to the bare Pd-NTF electrode” value in test [4] is on record as “did not change the binding patterns”. Besides, the “effect on binding patterns of S-protein to the lysozyme-coated Pd-NTF electrode” value in test [2] was “did not change the binding patterns”.
For `CCOC(=O)[C@H](CCc1ccccc1)N[C@@H](C)C(=O)N1[C@H](C(=O)O)C[C@@H]2CCC[C@@H]21` [ramipril], in test [3], the “suppression of S-protein-ACE2 interaction / maximum binding efficacy” value is reported as “approximately 42%”; the “ECmax S-protein” value is listed as 57.1±11.4%; the “modulation effect” value was “dose-dependent and non-competitive inhibition”. In addition, the “E gene RNA copies in the culture media reduced by” value in test [1] is 39.3%.
In the case of `C[C@H](N[C@@H](CCc1ccccc1)C(=O)O)C(=O)N1[C@H](C(=O)O)C[C@@H]2CCC[C@@H]21` [ramiprilat], the “effect on S-protein-ACE2 binding at highest dose” value in test [3] (4 μg/mL) is reported as “Near full inhibition”. Also, in test [3], the “suppression of S-protein-ACE2 interaction / maximum binding efficacy” value is given as 72%, the “ECmax S-protein” value was 27.6±7.5% and the “modulation effect” value was “antagonism effect is significantly enhanced”. Further, the “E gene RNA copies in the culture media reduced by” value in test [1] worked out at 36.4%.
`C[C@H](CS)C(=O)N1CCC[C@H]1C(=O)O` [captopril]: in test [1], the “E gene RNA in the media increased by” value amounted to 34.5%.
Still for that read-out and setting: next, `C[C@H](N[C@@H](CCc1ccccc1)C(=O)O)C(=O)N1CCC[C@H]1C(=O)O` [enalaprilat]: 44.4%.
For the compound `CCC[C@H](N[C@@H](C)C(=O)N1[C@H](C(=O)O)C[C@@H]2CCCC[C@@H]21)C(=O)OCC` [perindopril], in test [3], the “suppression of S-protein-ACE2 interaction / maximum binding efficacy” value is recorded as “approximately 48%”; the “ECmax S-protein” value came to 51.9±5.3%; the “modulation effect” value was “dose-dependent and non-competitive inhibition”. Besides, the “E gene RNA copies in the culture media reduced by” value in test [1] is on record as “approximately 18.8%”.
